Results taken from US7560473B2 (Institute of Pharmacology and Toxicology Academy of …, priority 2001, dated 2009).

What was measured:
[1] = biological target: T1, ATP-sensitive potassium channels in vascular smooth muscles (Rattus norvegicus, UniProt Q63563); test: Association kinetics of [^3H]P1075 binding in aortic rings; parameters: species or system Wistar rat; settings: 37° C.; drug M: Compound 1 10^−4, Glibencamide 10^−5, ATP 10^−2, ADP 10^−3, UDP 5 × 10^−5, GTP 10^−3, Ade 10^−3; control 4.36 ± 0.45; means ± SD, n = 4~10
T1 construct: The aorta was cut into about 3-5 mm arterial rings and the vascular endothelium was scraped off; from tissue; host or cells: endothelium-removed aortic rings of male Wistar rats
Excerpt: Biological activity experiment 4. Allosteric regulation of novel compounds on ATP-sensitive potassium channels in vascular smooth muscles.
To study the allosteric regulation of compound 1 on ATP-sensitive potassium channels in vascular smooth muscles, the radio-labled-ligand was used in the biological activity experiment 4.
1. The allosteric regulation of compound 1 on the binding sites for the selective KATP blocker glibenclamide in vascular smooth muscles was studied as follows: After decapitated, the male Wistar rat (340±20 g) was immediately incised open the thoracic cavity. The aorta was dissected and immersed in the 4° C. buffer containing 10 mM HEPES to wash off the blood, then carefully extirpated the fat, peripheral connective tissues and thrombus. The aorta was cut into about 3-5 mm arterial rings and the vascular endothelium was scraped off with wet tampon. The arterial rings were blotted, weighted and transferred into the tubes containing proper amount of ice colded physiological saline buffer. In the association kinetics experiment, the arterial circles in the tubes were incubated with, compound 1(10^−4M), pinacidil(10^−4M), ATP(10^−2M), ADP(10^−3M), Ade(10^−3M), […] and equal volume of buffer respectively for 10 min in 25° C. water bath, and then added [^3H]-glibenclamide(3 nM). At 5,10,15,20,30,60,90 and 120 min after incubation, 9 mL ice colded Tris buffer (50 mM) was added to terminate the reaction. After washing off the free and bound [^3H]-glibenclamide, the aorta was blotted, transferred to a scintillator, added 50 uL 30% H2O2 and reacted for 2 h at 80° C. After cooling, 2.5 mL ethyl glycol and 5 mL 1% B-BPD xylene were added in sequence, kept stationary for 8 h and measured under a scintillometer for cpm value. The resulting data were fit into a regression line with In[BEQ/(BEQ-Bt)]vs.t and the parameters for association kinetics were obtained. In the disassociation kinetics experiments, the aorta treated as described above and [^3H]-glibenclamide were incubated for 60 min at 25° C., and then 30 uM glibenclamide was added. 0,5,15,30,60,90 and 120 min later, the cpm values for the complex of [^3H]-glibenclamide and KATP were measured. The resulting data were fit into a regression line with In(B/BEQ)]vs.t and the parameters for disassociation kinetics were obtained. 2. The allosteric regulation of compound 1 on the binding sites for the selective KATP activator P1075 in vascular smooth muscles was studied with the method as described above, but some conditions should be changed as follows: the incubation temperature was 37° C. instead of 25° C.;P1075 was used instead of glibenclamide; In the association kinetics experiments, the time points for sampling were 5,10,15,20,30,45,60 and 90 min, while in the disassociation kinetics experiments, that were 1,3,5,10,20,30,45 and 60 min. Biological activity experiment 5. The effects of compound 1 on the specific binding of high selective activator [^3H]P1075 with ATP-sensitive potassium channels in vascular smooth muscles.

[2] = tested on: outward potassium currents of rat tail arterial SMCs; test: Whole cell recording of outward potassium currents in rat tail arterial SMCs; format: cell-based, Wistar rats; settings: outward potassium current amplitude before compound application, same cells; X ± SD n = 5
Excerpt: Biological activity experiments 6. The effects of novel compounds on potassium currents in isolated arterial vascular smooth muscle cells (SMCs).
The outward currents were, elicited in rat tail arterial SMCs by superfusing extracellular solution under whole cell recording configuration that the depolarizing pulse were applied from −30 mV to +100 mV with the holding potential of −40 mV in 100 ms, 10 mV clamp steps, a frequency of 5 KHz. The compounds were applied in the bath at the concentrations of 100 μmol L^−1. The amplitude of the outward potassium currents was recorded before and after compound application Values were expressed as means±SD. Statistical significance between two groups was evaluated by student's t-test for paired data * P<0.05 **P<0.01 vs control.
1. Preparation of single smooth muscle cells from rat tail arteries: Male Wistar rats (200-250 g) were killed by exsanguination. The tail artery was dissected out and transferred into cold physiological salt solution (PSS) of the following composition (in mM): NaCl 118.3, KCl 4.7, KH2PO4 1.2, MgSO4 1.2, NaHCO3 25.0, CaCl2 2.5, EDTA 0.026 and Glucose 5.0 pH7.4. With the use of a dissecting microscope, the connective tissues were removed and the artery was cut open longitudinally. Endothelium was removed carefully with a cotton swab then the artery was cut into segments with 1 mm long and placed in 4° C. the extracellular solution containing (in mM) NaCl 130, KCl 5, MgCl2 1.2, HEPES 10, Glucose 10, pH7.2 for 20 min. After this incubation, the medium was changed to enzyme solution which was composed of collagenase I (1 mg ml^−1), papain (5 mg ml^−) and bovine serum albumin (2 mg ml^−1). The tissues, were incubated in this solution for 40 min, and then rinsed three times triturated using a fire-polished Pasteur pipette until the medium turned cloudily. The cell suspension was stored in the refrigerator at 4° C.
3. Whole cell recordings: A bath dish with the smooth muscle cells (SMCs) attached and superfused with the extracellular solution at a flow rate of 2 ml min^−1 was mounted onto the stage of an inverted-phase contrast microscope. The microelectrodes having a resistance of (5-8 MΩ) were made from boroscilicate thin-wall glass capillaries, using an automatic multiple-stage, electronic puller (PP830 Japan) and then heat-polished. After establishing a high resistance seal, the patch membrane was disrupted by negative pressure. A commercial patch clamp amplifier (Axon 200B) was used to generate and apply voltages and sample current signals from the cell.

T1 sequence (Q63563 1-1545 isoform Q63563-2): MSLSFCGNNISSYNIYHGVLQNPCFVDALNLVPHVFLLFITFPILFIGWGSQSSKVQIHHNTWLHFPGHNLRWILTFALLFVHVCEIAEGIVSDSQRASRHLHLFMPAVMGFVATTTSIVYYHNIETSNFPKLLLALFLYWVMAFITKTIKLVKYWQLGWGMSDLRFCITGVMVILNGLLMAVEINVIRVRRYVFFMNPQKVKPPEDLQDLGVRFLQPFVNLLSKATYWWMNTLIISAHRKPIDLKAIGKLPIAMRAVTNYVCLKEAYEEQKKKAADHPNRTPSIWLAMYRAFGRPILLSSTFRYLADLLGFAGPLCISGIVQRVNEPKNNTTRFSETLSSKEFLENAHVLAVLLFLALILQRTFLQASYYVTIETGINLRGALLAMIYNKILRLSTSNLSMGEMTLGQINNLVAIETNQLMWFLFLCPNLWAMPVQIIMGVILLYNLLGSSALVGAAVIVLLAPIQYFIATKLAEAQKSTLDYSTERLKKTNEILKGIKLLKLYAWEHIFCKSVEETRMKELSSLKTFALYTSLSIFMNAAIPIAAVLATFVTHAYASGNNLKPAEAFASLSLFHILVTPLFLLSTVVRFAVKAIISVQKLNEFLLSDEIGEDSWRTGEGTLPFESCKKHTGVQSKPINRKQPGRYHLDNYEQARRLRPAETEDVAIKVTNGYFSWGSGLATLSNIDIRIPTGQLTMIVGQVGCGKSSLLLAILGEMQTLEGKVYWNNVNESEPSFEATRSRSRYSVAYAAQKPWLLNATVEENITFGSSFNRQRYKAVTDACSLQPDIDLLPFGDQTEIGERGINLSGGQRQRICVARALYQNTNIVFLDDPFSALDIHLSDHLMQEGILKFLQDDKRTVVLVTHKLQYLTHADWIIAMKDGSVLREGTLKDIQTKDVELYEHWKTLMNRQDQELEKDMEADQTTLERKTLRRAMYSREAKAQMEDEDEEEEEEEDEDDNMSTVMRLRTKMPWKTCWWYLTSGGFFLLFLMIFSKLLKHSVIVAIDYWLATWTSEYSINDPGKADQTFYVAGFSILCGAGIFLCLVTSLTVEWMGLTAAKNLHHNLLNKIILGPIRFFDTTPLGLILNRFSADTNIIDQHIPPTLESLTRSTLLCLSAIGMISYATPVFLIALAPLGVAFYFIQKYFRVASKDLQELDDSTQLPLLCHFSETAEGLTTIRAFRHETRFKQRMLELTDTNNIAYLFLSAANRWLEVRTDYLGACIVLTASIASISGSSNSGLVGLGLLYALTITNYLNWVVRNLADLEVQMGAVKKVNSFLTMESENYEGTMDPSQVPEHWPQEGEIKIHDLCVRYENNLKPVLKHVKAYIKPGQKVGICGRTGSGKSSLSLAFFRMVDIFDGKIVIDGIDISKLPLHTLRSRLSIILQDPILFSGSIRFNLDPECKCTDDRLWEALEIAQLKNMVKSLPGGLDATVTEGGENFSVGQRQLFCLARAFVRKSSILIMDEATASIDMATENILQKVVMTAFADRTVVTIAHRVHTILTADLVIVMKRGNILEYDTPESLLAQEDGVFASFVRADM
T1 sequence (Q63664 whole entry partner): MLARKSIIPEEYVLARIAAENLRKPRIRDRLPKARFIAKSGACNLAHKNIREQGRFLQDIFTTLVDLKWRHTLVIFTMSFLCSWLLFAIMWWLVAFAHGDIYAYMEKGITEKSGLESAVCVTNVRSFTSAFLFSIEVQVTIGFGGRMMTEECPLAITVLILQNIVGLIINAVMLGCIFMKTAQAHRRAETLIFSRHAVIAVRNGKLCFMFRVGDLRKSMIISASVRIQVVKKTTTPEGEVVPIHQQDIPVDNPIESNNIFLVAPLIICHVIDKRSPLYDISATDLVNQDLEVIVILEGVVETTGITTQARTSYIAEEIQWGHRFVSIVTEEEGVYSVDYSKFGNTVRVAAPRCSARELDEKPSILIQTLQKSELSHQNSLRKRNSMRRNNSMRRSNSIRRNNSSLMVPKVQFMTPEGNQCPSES

## CC(C)NC(C)(C)C(C)C [compound 1, N-(1-methylethyl)-2,3-dimethyl-2-butylamine]
[1]
  Association kinetics kobs of [^3H]P1075 binding: 2.44 ± 0.80 ×10^−2 nM^−1 · min^−1
[2]
  Currents, Control (before compound application): 0.41 ± 0.08 nA
